Laboratory results taken from patent publication US20060199770A1, “Functionalized carbon nanotubes, a process for preparing the same and their use in medicinal chemistry” (priority 2003, published 2006).
Where no end group is shown, it is not given here.

What was measured:
mAb 21×27 = assay type: binding, mice
[1] = system: polyclonal mouse anti-FMDV peptide serum; assay type: binding
BALB/c mice = settings: mouse, in vivo; cited from earlier work

Substance | recognition by monoclonal antibodies (ELISA, FIG. 5B) (mAb 21×27) | recognition by polyclonal antibodies (ELISA, FIG. 5A) [1] | immunogenicity when injected alone with an adjuvant (BALB/c mice)
Ac-CGSGVRGDFGSLAPRVARQL [free FMDV peptide] | recognized equally well | recognized equally well | –
Ac-GSGVRGDFGSLAPRVARQL [FMDV 141-159 peptide] | – | – | not immunogenic
